Assays:
MDA231-LeptoM cells = assay: Leptomeningeal metastasis model, MDA231-LeptoM cells into cisterna magna, BLI; format: in vivo, mouse; settings: vs vehicle; for tumor growth within the leptomeninges (bioluminescent imaging): 2,000 MDA LeptoM cells into cisterna magna
Description: (§1) FIG. 11A-11C. C3aR as a therapeutic target in leptomeningeal metastasis. (A) 2,000 MDA231-LeptoM cells were introduced into the cisterna magna on day 0. Mice were treated with 10 mg/kg C3aR agonist (Ag), 10 mg/kg antagonist (Ant) or vehicle (Veh) I.P. twice weekly, tumor cell growth was monitored by BLI. n=10 mice per group. ****p<0.0001 (B) Survival analysis of mice treated in (A). (C) 2,000 MDA231-LeptoM, PC9-LeptoM, HCC1954-LeptoM or LCC-LeptoM cells were introduced into the CSF on day 0 and treated with Veh or Ant as described in (A). n=10 mice per group. BLI on day 14 is illustrated. *p<0.05; **p<0.01; *** p<0.001.
In light of the cancer cell dependence on C3 for growth within the leptomeningeal space, as well as C3aR's importance in maintenance of CP barrier function, we elected to assay C3aR antagonist as well as agonists in models of leptomeningeal metastasis. First, 2,000 MDA LeptoM were injected into the cisterna magna of recipient mice. Next, treatment with either vehicle, C3aR agonist or antagonist was initiated. Tumor growth was followed with bioluminescent imaging FIG. 11A.
(§2) Cells corresponding to each of these models were inoculated into the leptomeningeal space of recipient mice on Day 0. Daily systemic treatment with C3aR antagonist SB290157 began on Day 1. Bioluminescent imaging to quantitate tumor cell growth is shown for each of the models, FIG. 11C. […] In this approach, maintenance of B-CSF-B integrity inhibits cancer cell survival by inhibiting cancer cell access to plasma components, including protein, growth factors and metabolic intermediates.

HCC1954-LeptoM cells = assay: Leptomeningeal metastasis model, HCC1954-LeptoM cells, BLI; format: in vivo, mouse; settings: systemic treatment from Day 1, BLI on day 14, vs vehicle
Description: as §1, §2

PC9-LeptoM cells = assay: Leptomeningeal metastasis model, PC9-LeptoM cells, BLI; format: in vivo, mouse; settings: systemic treatment from Day 1, BLI on day 14, vs vehicle
Description: as §1, §2

LLC-LeptoM cells = assay: Leptomeningeal metastasis model, LLC-LeptoM cells, BLI; format: in vivo, mouse; settings: systemic treatment from Day 1, BLI on day 14, vs vehicle
Description: as §1, §2

[1] = tested on: human choroid plexus epithelial cells (HuCPEpi); assay: Trans-epithelial electrical resistance (TEER) in in vitro model of B-CSF-B; format: cell-based; settings: HuCPEpithelial cells on laminin-coated transwells, after addition of recombinant C3a
Source text: (§3) FIG. 7A-7F. C3aR activation alters B-CSF-barrier integrity. (A) Immunofluorescence of mouse choroid plexus for C3aR (red) and the apically expressed SPAK (green). (B) Trans-epithelial resistance in response to C3a in an in vitro model of B-CSF-B employing human choroid plexus epithelial cells (HuCPEpi). (C) Conditioned medium from MDA231 Parental cells (green) supplemented with recombinant mouse C3a (open circles) or vehicle (closed circles) was used to treat the monolayer prior to TEER measurements. (D) Conditioned medium from MDA231 LeptoM cells was not treated with antibody (closed circle), or immunodepleted with anti-C3 (open circles) or IgG control (black squares) prior to TEER measurements. (E) Mice (C3aR^+/+ or ^−/−) were parenterally pretreated with recombinant mouse C3a or vehicle prior to intracardiac infusion of mixed fluorescently labeled dextrans. 30 minutes later, CSF and blood were sampled and analyzed by fluorimetry. In the bar graphs, for each dextran size, fluorescence in animals treated with rmC3a is represented by the bar on the right (vehicle represented by the bar on the left). (F) Mouse choroid plexus treated with C3a or vehicle for 2 hours prior to fixation and staining for ZO-1 and Claudin.
To address the hypothesis that C3aR might function similarly in the choroid plexus, we first established the presence of C3aR on choroid plexus epithelium (FIG. 7A). […]

C3aR = molecular target: T1, C3aR (Mus musculus, UniProt O09047); assay: Passage of fluorescently labeled dextrans from blood to CSF in vivo; settings: dextrans of 40 kDa and smaller; CSF sampled 30 minutes after intracardiac dextran; C3aR-dependent (wild type vs knockout mice)
T1 construct: from tissue; host or cells: living mice (in vivo)
T1 sequence (O09047 1-477): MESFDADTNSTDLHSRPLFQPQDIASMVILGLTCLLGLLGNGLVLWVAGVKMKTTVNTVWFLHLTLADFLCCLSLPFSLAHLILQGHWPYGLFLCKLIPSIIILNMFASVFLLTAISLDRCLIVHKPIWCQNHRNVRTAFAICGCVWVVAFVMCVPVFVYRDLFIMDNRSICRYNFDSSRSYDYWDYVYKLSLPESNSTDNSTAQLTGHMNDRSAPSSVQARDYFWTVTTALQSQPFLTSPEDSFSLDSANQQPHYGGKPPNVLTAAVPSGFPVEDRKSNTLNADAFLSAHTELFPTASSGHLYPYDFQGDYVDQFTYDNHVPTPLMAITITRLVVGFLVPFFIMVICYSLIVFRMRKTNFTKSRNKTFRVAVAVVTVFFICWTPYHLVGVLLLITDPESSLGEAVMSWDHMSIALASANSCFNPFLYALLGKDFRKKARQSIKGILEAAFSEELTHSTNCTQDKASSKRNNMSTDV
Source text: as §3, with “(F) Mouse choroid plexus treated with C3a or vehicle for 2 hours prior to fixation and staining for ZO-1 and Claudin.” left out
(§4) The passage of larger molecules was assessed through the use of fluorescently labeled Dextran passage in vivo. […] Thirty minutes after this treatment, CSF was sampled by cisternal tap, and presence of the derivatized dextran was assayed by fluorescence. […]

[2] = tested on: choroid plexus epithelial cells; assay: Tight junction staining (ZO-1, claudin immunofluorescence) of choroid plexus; settings: mouse choroid plexus treated 2 hours prior to fixation
Source text: as §3, with “(F) Mouse choroid plexus treated with C3a or vehicle for 2 hours prior to fixation and staining for ZO-1 and Claudin.” left out
as §4

[3] = Amphiregulin ELISA in CSF and plasma after parenteral C3a; format: in vivo; settings: mouse models, after parenteral administration
Source text: FIG. 10A-10D. C3 conditioned CSF by opening the blood-CSF-barrier. (A) Commercial dot-blot array was employed to measure proteins present in CSF of two patients without leptomeningeal metastasis, who later developed leptomeningeal metastasis. […] (B) LLC-LeptoM cells instilled into the cisterna magna of C3aR wild-type (^+/+) or knock-out (^−/−) syngenic mice. Tumor growth was monitored by BLI. (C) ELISA for amphiregulin of CSF from suspected of leptomeningeal metastasis. Final clinical diagnosis is indicated. (D) Mice were parenterally pretreated with recombinant mouse […] or vehicle (green) as described in FIG. 7E. Amphiregulin was measured by ELISA in CSF and plasma.
Leptomeningeal metastasis alters the composition of the CSF (FIG. 10A), including the growth factor amphiregulin (FIG. 10C). Cancer cell growth within the leptomeningeal space is improved in the presence of the C3aR in our models of leptomeningeal metastasis (FIG. 10B) after parenteral administration of C3a, serum amphiregulin is elevated within the CSF in mouse models.

| Compound | tumor growth within the leptomeninges (bioluminescent imaging) (MDA231-LeptoM cells; 10 mg/kg I.P. twice weekly) | leptomeningeal tumor growth (BLI) (MDA231-LeptoM cells; MDA231 model, systemic treatment from Day 1, BLI on day 14) | survival (MDA231-LeptoM cells; MDA LeptoM model, 10 mg/kg I.P. twice weekly) | leptomeningeal tumor growth (BLI) (HCC1954-LeptoM cells) | leptomeningeal tumor growth (BLI) (PC9-LeptoM cells) | leptomeningeal tumor growth (BLI) (LLC-LeptoM cells) | resistance across the monolayer (TEER) [1] | passage of dextrans from blood to CSF (C3aR) | tight junctions between choroid plexus epithelial cells (claudin immunofluorescence) [2] | amphiregulin within the CSF [3] |
| --- | --- | --- | --- | --- | --- | --- | --- | --- | --- | --- |
| O=C(NC1CCN(C(=O)CCc2cccnc2)CC1)C(c1ccccc1)C1CCCCC1 (stereo not drawn) [C3aR agonist, α-cyclohexyl-N-[1-[1-oxo-3-(3-pyridinyl)propyl]-4-piperidinyl]-benzeneacetamide] | accelerated |  |  |  |  |  |  |  |  |  |
| N=C(N)NCCC[C@H](NC(=O)COCC(c1ccccc1)c1ccccc1)C(=O)O [SB290157, N2-[2-(2,2-diphenylethoxy)acetyl]-L-arginine, 2,2,2-trifluoroacetate] | slowed | less leptomeningeal tumor growth | survival benefit | less leptomeningeal tumor growth | less leptomeningeal tumor growth | less leptomeningeal tumor growth |  |  |  |  |
| recombinant C3a: recombinant C3a, hydrolysis fragment of complement C3, ligand of the C3aR receptor |  |  |  |  |  |  | reduced | increased | disorganization of tight junctions | elevated |
